{
  "source": "ChEMBL document CHEMBL4308868",
  "about": "(Bioorg Med Chem Lett, 2019)",
  "target": "T1, Tyrosinase (Agaricus bisporus, UniProt O42713)",
  "T1 sequence (O42713 whole entry)": "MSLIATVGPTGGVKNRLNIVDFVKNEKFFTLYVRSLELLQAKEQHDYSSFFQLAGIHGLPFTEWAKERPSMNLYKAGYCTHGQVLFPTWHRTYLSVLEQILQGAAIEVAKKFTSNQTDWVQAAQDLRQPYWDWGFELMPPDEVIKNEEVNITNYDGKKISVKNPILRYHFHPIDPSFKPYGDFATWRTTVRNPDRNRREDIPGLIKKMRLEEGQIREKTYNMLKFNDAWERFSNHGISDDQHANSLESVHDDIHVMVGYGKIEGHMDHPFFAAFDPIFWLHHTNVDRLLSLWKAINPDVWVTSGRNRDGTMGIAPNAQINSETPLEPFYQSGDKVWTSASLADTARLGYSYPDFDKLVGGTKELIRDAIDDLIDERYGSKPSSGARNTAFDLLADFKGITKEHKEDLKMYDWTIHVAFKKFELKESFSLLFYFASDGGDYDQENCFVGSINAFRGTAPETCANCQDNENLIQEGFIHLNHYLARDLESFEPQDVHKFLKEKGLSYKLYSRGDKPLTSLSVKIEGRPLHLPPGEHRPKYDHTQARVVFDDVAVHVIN",
  "note": "pIC50: −log10 of the molar value.",
  "description": "Inhibition of mushroom tyrosinase using L-tyrosine as substrate measured after 20 mins by spectrophotometric method",
  "data": [
    {"compound": "CCOc1cc(C(C)C)c(C(=O)CCC(=O)OCc2ccccc2)cc1C", "values": [
      {"measurement": "pIC50", "value": "< 3.30"}
    ]},
    {"compound": "CCOc1cc(C(C)C)ccc1C", "values": [
      {"measurement": "pIC50", "value": "< 3.30"}
    ]},
    {"compound": "C/C=C/COC(=O)CCC(=O)c1cc(C(C)C)c(OCC)cc1C", "values": [
      {"measurement": "pIC50", "value": 3.99}
    ]},
    {"compound": "CCOc1cc(C(C)C)c(C(=O)CCC(=O)OC)cc1C", "values": [
      {"measurement": "pIC50", "value": "< 3.30"}
    ]},
    {"compound": "CCOc1cc(C)ccc1C(C)C", "values": [
      {"measurement": "pIC50", "value": "< 3.30"}
    ]},
    {"compound": "CCCOC(=O)CCC(=O)c1cc(C)c(OCC)cc1C(C)C", "values": [
      {"measurement": "pIC50", "value": 3.66}
    ]},
    {"compound": "CCCCOC(=O)CCC(=O)c1cc(C(C)C)c(OCC)cc1C", "values": [
      {"measurement": "pIC50", "value": 3.72}
    ]},
    {"compound": "C=CCOC(=O)CCC(=O)c1cc(C(C)C)c(OCC)cc1C", "values": [
      {"measurement": "pIC50", "value": 3.90}
    ]},
    {"compound": "CCOc1cc(C)c(C(=O)CCC(=O)OCc2ccccc2)cc1C(C)C", "values": [
      {"measurement": "pIC50", "value": "< 3.30"}
    ]},
    {"compound": "CCOc1cc(C)c(C(=O)CCC(=O)OC)cc1C(C)C", "values": [
      {"measurement": "pIC50", "value": "< 3.30"}
    ]},
    {"compound": "CCCCOC(=O)CCC(=O)c1cc(C)c(OCC)cc1C(C)C", "values": [
      {"measurement": "pIC50", "value": 3.75}
    ]},
    {"compound": "CCCOC(=O)CCC(=O)c1cc(C(C)C)c(OCC)cc1C", "values": [
      {"measurement": "pIC50", "value": 3.81}
    ]},
    {"compound": "CCOC(=O)CCC(=O)c1cc(C(C)C)c(OCC)cc1C", "values": [
      {"measurement": "pIC50", "value": 3.67}
    ]},
    {"compound": "C/C=C/COC(=O)CCC(=O)c1cc(C)c(OCC)cc1C(C)C", "values": [
      {"measurement": "pIC50", "value": 3.61}
    ]},
    {"compound": "CCOC(=O)CCC(=O)c1cc(C)c(OCC)cc1C(C)C", "values": [
      {"measurement": "pIC50", "value": "< 3.30"}
    ]},
    {"compound": "CCOc1cc(C)c(C(=O)CCC(=O)O)cc1C(C)C", "values": [
      {"measurement": "pIC50", "value": "< 3.30"}
    ]},
    {"compound": "CCOc1cc(C(C)C)c(C(=O)CCC(=O)O)cc1C", "values": [
      {"measurement": "pIC50", "value": "< 3.30"}
    ]},
    {"compound": "Cc1ccc(C(C)C)cc1O", "note": "[CARVACROL]", "values": [
      {"measurement": "pIC50", "value": "< 3.30"}
    ]}
  ]
}
